# Data published in paper PMC8779355, “In Silico and In Vitro Structure–Activity Relationship of Mastoparan and Its Analogs” (Molecules, 2022).
# Residues, ends and D or L forms follow the SMILES beside them.
# Key:
# Conditions in all cases: nutrient broth, 1 × 10^5 CFU/mL, peptide 0.1 to 50 μg/mL, O.D.600 at 18 h, MIC = growth inhibition greater than 90%, three independent experiments in triplicate
# [1] = tested on: P. aeruginosa ATCC 27,853 (DMST 4739); assay type: cell-based
# Description: (§1) The biological activities of MpVT and its analogs were investigated by assaying antimicrobial activities and by studying the hemolysis activity. The minimal inhibitory concentrations (MIC) of the peptides were determined based on methods described by Anunthawan et al.. […] The MpVT4-7 could not detect antibacterial activity when using a peptide concentration lower than 50 μg/mL. The E. coli strains that were the most susceptible against MpVT peptides were selected for visualizing the bacterial morphology when treated with these peptides using a scanning electron microscope. The normal and abnormal morphologies of bacteria cells were visualized after 60 min treatment with the MpVT peptides (Figure 6).
# (§2) The microorganisms; Staphylococcus auerus ATCC 27,853 (DMST 4739), Staphylococcus auerus ATCC 25923, Bacillus subtilis ATCC663, Escherichia coli 0157:H7, Escherichia coli DH5α, and Klebsiella pneumoniae ATCC27736 (DMST4739) were used to determine the MIC of MpVT and its analogs. The bacterial strains were inoculated to enter their log phases, and then the suspension was diluted in nutrient broth. The microorganisms were prepared at a final concentration of 1 × 10^5 CFU/mL. The peptides’ concentrations, ranging from 0.1 to 50 μg/mL, were determined. Serial doubling dilutions of various concentrations of MpVTs were made into a nutrient broth to a final volume of 100 μL in each well of a 96-well plate. A% inhibition = 100 − (O.D.600 at 18 h − O.D.600 at immediate treatment × 100/O.D.600 at […] of control − O.D.600 at 18 h of control − O.D.600 at immediate treatment of control). (1)
# E. coli 0157:H7 = assay type: cell-based, Escherichia coli
# Description: as §1, §2
# E. coli DH5α = assay type: cell-based, Escherichia coli
# Description: as §1, §2
# [2] = tested on: K. pneumoniae ATCC27736 (DMST4739); assay type: cell-based, Klebsiella pneumoniae
# Description: as §1, §2
# B. subtilis ATCC663 = assay type: cell-based, Bacillus subtilis
# Description: as §1, §2
# S. aureus ATCC25923 = assay type: cell-based, Staphylococcus auerus
# Description: as §1, §2
Structure (SMILES),MIC [1] [µg/mL],MIC (E. coli 0157:H7) [µg/mL],MIC (E. coli DH5α) [µg/mL],MIC [2] [µg/mL],MIC (B. subtilis ATCC663) [µg/mL],MIC (S. aureus ATCC25923) [µg/mL]
CC[C@H](C)[C@H](N)C(=O)N[C@@H](CC(N)=O)C(=O)N[C@@H](CC(C)C)C(=O)N[C@@H](CCCCN)C(=O)N[C@@H](C)C(=O)N[C@H](C(=O)N[C@@H](C)C(=O)N[C@@H](C)C(=O)N[C@@H](Cc1ccccc1)C(=O)N[C@@H](C)C(=O)N[C@@H](CCCCN)C(=O)N[C@@H](CCCCN)C(=O)N[C@@H](Cc1ccccc1)C(=O)N[C@H](C(=O)O)[C@@H](C)CC)[C@@H](C)CC [MpVT1] (H-INLKAIAAFAKKFI-OH),6.25,6.25,0.39,6.25,3.125,12.50
CC[C@H](C)[C@H](N)C(=O)N[C@@H](CC(N)=O)C(=O)N[C@@H](CC(C)C)C(=O)N[C@@H](CCCCN)C(=O)N[C@@H](C)C(=O)N[C@H](C(=O)N[C@@H](C)C(=O)N[C@@H](C)C(=O)N[C@@H](Cc1ccccc1)C(=O)N[C@@H](C)C(=O)N[C@@H](CCCCN)C(=O)N[C@@H](C)C(=O)N[C@@H](CC(C)C)C(=O)N[C@H](C(=O)O)[C@@H](C)CC)[C@@H](C)CC [MpVT3] (H-INLKAIAAFAKALI-OH),6.25,50.00,0.78,25.00,12.50,50.00
CC[C@H](C)[C@H](NC(=O)[C@H](Cc1ccccc1)NC(=O)[C@H](CCCCN)NC(=O)[C@H](CCCCN)NC(=O)[C@H](C)NC(=O)[C@H](Cc1ccccc1)NC(=O)[C@H](C)NC(=O)[C@H](C)NC(=O)[C@@H](NC(=O)[C@H](C)NC(=O)[C@@H](N)CCCCN)[C@@H](C)CC)C(=O)O [MpVT4] (H-KAIAAFAKKFI-OH),25.0,>50.00,25.00,>50.00,>50.00,>50.00
CC[C@H](C)[C@H](NC(=O)[C@H](Cc1ccccc1)NC(=O)[C@H](Cc1ccccc1)NC(=O)[C@H](CCCCN)NC(=O)[C@H](CCCCN)NC(=O)[C@H](C)NC(=O)[C@H](Cc1ccccc1)NC(=O)[C@H](C)NC(=O)[C@H](C)NC(=O)[C@@H](NC(=O)[C@H](C)NC(=O)[C@@H](N)CCCCN)[C@@H](C)CC)C(=O)O [MpVT5] (H-KAIAAFAKKFFI-OH),>50.00,>50.00,6.25,>50.00,>50.00,>50.00
CC[C@H](C)[C@H](NC(=O)[C@H](Cc1ccccc1)NC(=O)[C@H](CC(C)C)NC(=O)[C@H](C)NC(=O)[C@H](CCCCN)NC(=O)[C@H](C)NC(=O)[C@H](Cc1ccccc1)NC(=O)[C@H](C)NC(=O)[C@H](C)NC(=O)[C@@H](NC(=O)[C@H](C)NC(=O)[C@@H](N)CCCCN)[C@@H](C)CC)C(=O)O [MpVT6] (H-KAIAAFAKALFI-OH),>50.00,>50.00,12.50,>50.00,>50.00,>50.00
CC[C@H](C)[C@H](NC(=O)[C@H](Cc1ccccc1)NC(=O)[C@H](CC(C)C)NC(=O)[C@H](CCCCN)NC(=O)[C@H](C)NC(=O)[C@H](C)NC(=O)[C@H](Cc1ccccc1)NC(=O)[C@H](C)NC(=O)[C@H](C)NC(=O)[C@@H](NC(=O)[C@H](C)NC(=O)[C@@H](N)CCCCN)[C@@H](C)CC)C(=O)O [MpVT7] (H-KAIAAFAAKLFI-OH),>50.00,>50.00,6.25,>50.00,50.00,>50.00
CC[C@H](C)[C@H](N)C(=O)N[C@@H](CC(N)=O)C(=O)N[C@@H](CC(C)C)C(=O)N[C@@H](CCCCN)C(=O)N[C@@H](C)C(=O)N[C@H](C(=O)N[C@@H](C)C(=O)N[C@@H](C)C(=O)N[C@@H](Cc1ccccc1)C(=O)N[C@@H](C)C(=O)N[C@@H](CCCCN)C(=O)N[C@@H](CCCCN)C(=O)N[C@@H](CC(C)C)C(=O)N[C@H](C(=O)O)[C@@H](C)CC)[C@@H](C)CC [MpVT] (H-INLKAIAAFAKKLI-OH),25.00,50.00,3.125,25.00,25.00,50.00
